Laboratory results from patent US7829714B2, “Method for measuring aromatase activity” (GE Healthcare Limited, priority 2003, dated 2010).
Like-named read-outs stand apart in the source and are kept apart here.

Molecular target: T1, CYP19 (aromatase) containing microsomes (Homo sapiens, UniProt P11511)
T1 sequence (P11511 1-503): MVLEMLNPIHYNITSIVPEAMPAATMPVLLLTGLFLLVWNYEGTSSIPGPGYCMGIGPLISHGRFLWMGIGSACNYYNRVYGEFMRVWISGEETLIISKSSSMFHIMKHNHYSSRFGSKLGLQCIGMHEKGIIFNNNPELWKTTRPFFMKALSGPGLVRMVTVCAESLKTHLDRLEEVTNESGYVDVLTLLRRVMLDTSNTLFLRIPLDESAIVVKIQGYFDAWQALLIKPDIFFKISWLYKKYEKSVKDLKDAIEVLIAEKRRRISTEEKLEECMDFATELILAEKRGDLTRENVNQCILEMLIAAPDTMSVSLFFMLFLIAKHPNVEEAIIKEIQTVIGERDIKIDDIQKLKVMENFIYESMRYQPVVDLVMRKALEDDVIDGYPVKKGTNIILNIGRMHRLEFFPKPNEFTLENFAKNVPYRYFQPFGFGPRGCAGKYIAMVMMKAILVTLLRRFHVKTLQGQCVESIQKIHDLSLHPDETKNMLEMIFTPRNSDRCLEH
Conditions: for change in intensity relative to the control: 20 μl of CYP19 aromatase preparation (FIG. 5); for decrease in intensity relative to the control reaction: 2 μM substrate, 1 mM NADPH
Experimental: NADPH was prepared to a final concentration of 1 mM in 100 mM disodium hydrogen phosphate buffer pH7.4.
100 μl of this reagent was dispensed in to replicate wells of a 96 well microtitre plate. To each well was dispensed 20 μl-30 μl of either the CYP19 (aromatase) containing microsomes or control microsomes (no CYP19). All microsomes were adjusted to the same protein concentration with assay buffer. The plates were incubated at 37° C. for 1 hour and then fluorescence intensity measurements were recorded on the Envision Plate Reader (Perkin Elmer, US), excitation 405 nm/emission BFP450 nm.

Row | SMILES | fluorescence intensity, aromatase microsomes compared to control microsome preparation | change in intensity relative to the control [%] | decrease in intensity relative to the control reaction (300 of microsome preparation, 37° C. for 1 hour (FIG. 3)) [%] | decrease in fluorescence (in the absence of additional co-factor (NADPH) (FIG. 4)) [%] | decrease in fluorescence (in the presence of additional NADPH (FIG. 4)) [%] | decrease in intensity relative to the control reaction (microsome volume of 200, 37° C. for 1 hour, excitation 405 nm/emission 450 nm (FIG. 3)) [%]
1 | C[C@]12CCC(=O)C=C1CC[C@@H]1[C@@H]2CC[C@]2(C)C(C(=O)NCCNC(=O)CCCCCn3c4ccccc4c(=O)c4ccccc43)CC[C@@H]12 (stereo partly shown) [Formula XX, 3-oxo-N-(2-{[6-(9-oxoacridin-10(9H)-yl)hexanoyl]amino}ethyl)androst-4-ene-17-carboxamide] | greater decrease in fluorescence intensity | 17.5 | 24.2 | 16 | 24 | 17.5
2 | O=C(O)CCCCCn1c2ccccc2c(=O)c2ccccc21 [compound XVII, 6-(9-oxoacridin-10(9H)-yl)hexanoic acid, reference compound] | – | 5 | – | – | – | –
